From US12655104B2, “Anticancer compounds selective for ER-positive cancers” (THE BOARD OF TRUSTEES OF THE UNIVERSITY OF ILLINOIS, priority 2020, dated 2026)
Where two headings read alike, the source gives them in different places.

Experiments:
MCF-7 cells = assay: Alamar blue fluorescence viability (IC50), MCF-7; format: cell-based
Method: (§1) Cancer Cell Lines: Culturing Conditions and Validation. All cell lines were cultured at 37° C. with 5% CO2. All ERα-positive cell lines were grown in media lacking phenol red. MCF-7 were grown in EMEM with 10% FBS and 1% penicillin-streptomycin (P/S). T47D were cultured in MEM with 10% FBS and 1% P/S. TYS and TDG cells were grown in MEM supplemented with 10% CD-FBS and 1% P/S. HCT-116 and MDA-MB-231 cells were cultured in RPMI-1640 supplemented with 10% FBS and 1% P/S. MDA-MB-436 cells were cultured in DMEM supplemented with 10% FBS and 1% P/S. HT-29 were cultured in McCoy's media supplemented with 10% FBS and 1% P/S. All cell lines were used directly from ATCC stocks and/or have been further authenticated using PowerPlex16HS Assay (Promega) as described previously.^54 In short, >1 million cells were harvested and lysed using the cell lysis buffer (50 mM Tris, 50 mM EDTA, 25 mM sucrose, 100 mM NaCl, 1% SDS, pH 8). DNA extraction and short tandem repeats (STRs) profiling for each cell line were carried out at the University of Arizona Genetics Core (UAGC). Autosomal STR profiles were compared to reference databases such as ATCC, DSMZ, and JCRB.
(§2) Alamar Blue Fluorescence for Anticancer Activity (IC50). 2,000-15,000 cells per well were seeded a 96-well plate. Cells were allowed to adhere before DMSO stock solutions of test compounds were added to each well with a final concentration of DMSO in each well=1%; final volume: 100 μL. At the end of the desired incubation time (e.g., 24 or 72 hours), media in each well was aspirated and new fresh media (no compound, 100 μL) was added. Alamar blue solution (4 mg resazurin per 40 mL PBS) was then added (10 μL). After 2-6 hours incubation, each well's fluorescence (λexcit.=555 nm, λemission.=585 nm) was measured using a SpectraMax M3 plate reader (Molecular Devices). Percent dead was determined by comparison to a 100% dead control: 100 μM raptinal treated cells. Dose dependent curves and IC50 were calculated using Origin Pro V10.

MDA-MB-231 = assay: Alamar blue fluorescence viability (IC50), MDA-MB-231; format: cell-based; settings: for Fold Change: Average Fold Change between 24/72 hr IC50 values for MCF-7 and MDA-MB-231; for IC50: MDA-MB-231, ERα negative
Method: as §1, §2

HCT-116 = assay: Alamar blue fluorescence viability (IC50), HCT-116; format: cell-based; settings: for Fold Change: Average Fold Change between 24/72 hr IC50 values for MCF-7 and HCT-116; for IC50: HCT-116, ERα negative
Method: as §1, §2

HT-29 = assay: Alamar blue fluorescence viability (IC50), HT-29; format: cell-based; settings: for Fold Change: Average Fold Change between 24/72 hr IC50 values for MCF-7 and HT-29; for IC50: HT-29, ERα negative
Method: as §1, §2

ERα− cancer cell lines = assay: Selectivity of cell killing, ERα+ versus ERα− cancer cell lines; format: cell-based; settings: MDA-MB-231, HCT-116, HT-29; 24- and 72-hour incubations
Method: as §1, §2

[1] = Simulated gastric fluid (SGF) stability assay; format: in vitro ADME; settings: 100 μM in SGF with pepsin
Method: Simulated Gastric Fluid (SGF) Stability Assay. SGF was prepared fresh by adding 3.2 g pepsin (Sigma Aldrich P7000) to 1000 mL of SGF (Fischer Scientific 7108-16) and the pH adjusted to 1.2 using a pH meter. This SGFwith pepsin solution was then warmed to 37° C. 990 μL of warmed SGFwith pepsin was then aliquoted into multiple Eppendorf tubes, followed by 10 μL of 10 mM DMSO stock solutions of test compounds. Erythromycin (MedChemExpress HY-B0220) is a positive control for this stability assay. Samples were incubated at 37° C. for the entire experiment with vortexing every 15 minutes. At each desired time point (0, 15, 30, 60, 120 minutes), a 100 μL aliquot is removed and quenched into 50 μL of acetonitrile. Samples are stored at 4° C. until all time points are complete. Samples were then vortexed and then clarified at 3,000 RPM for 10 minutes in a 4° C. centrifuge. Supernatants were collected and compound concentrations determined by LC-MS/MS (UIUC Metabolomics Center, Urbana, IL.). Determined compound concentrations were used to calculate percent remaining compared to t=0 samples.

[2] = MCF-7, ERα positive, 24 hr, read-out: IC50 24 hr
[3] = MCF-7, ERα positive, 72 hr, read-out: IC50 72 hr
[4] = Homo sapiens, MCF7, MCF-7 cells, 24 hours, Alamar blue, mean ± s.e.m., read-out: IC50

SMILES: O=C1Nc2c(C(F)(F)F)cccc2C1(c1ccc(O)cc1)N1CCCC(F)(F)C1 (centres unmarked)
- IC50 (MCF-7 cells; [2]): 0.039 ± 0.01 µM
- IC50 (MCF-7 cells; [3]): 0.033 ± 0.001 µM
- Fold Change (MDA-MB-231): 667
- IC50 (MDA-MB-231; 24 hr, read-out: IC50 24 hr): 49 ± 4 µM
- IC50 (MDA-MB-231; 72 hr, read-out: IC50 72 hr): 22 ± 1 µM
- Fold Change (HCT-116): 636
- IC50 (HCT-116; 24 hr, read-out: IC50 24 hr): 38 ± 4 µM
- IC50 (HCT-116; 72 hr, read-out: IC50 72 hr): 21 ± 4 µM
- Fold Change (HT-29): 758
- IC50 (HT-29; 24 hr, read-out: IC50 24 hr): 29 ± 1 µM
- IC50 (HT-29; 72 hr, read-out: IC50 72 hr): 25 ± 3 µM

SMILES: O=C1Nc2c(C(F)(F)F)cccc2C1(c1ccc(O)cc1)N1CCC(F)(F)C1 (centres unmarked)
- IC50 (MCF-7 cells; [2]): 0.017 ± 0.001 µM
- IC50 (MCF-7 cells; [3]): 0.022 ± 0.001 µM
- Fold Change (MDA-MB-231): 1455
- IC50 (MDA-MB-231; 24 hr, read-out: IC50 24 hr): 51 ± 5 µM
- IC50 (MDA-MB-231; 72 hr, read-out: IC50 72 hr): 32 ± 3 µM
- Fold Change (HCT-116): 909
- IC50 (HCT-116; 24 hr, read-out: IC50 24 hr): 45 ± 5 µM
- IC50 (HCT-116; 72 hr, read-out: IC50 72 hr): 20 ± 6 µM
- Fold Change (HT-29): 1364
- IC50 (HT-29; 24 hr, read-out: IC50 24 hr): 35 ± 6 µM
- IC50 (HT-29; 72 hr, read-out: IC50 72 hr): 30 ± 5 µM

SMILES: O=C1Nc2c(C(F)(F)F)cccc2C1(c1ccc(O)cc1)N1CC(F)(F)C1 (centres unmarked)
- IC50 (MCF-7 cells; [3]): 0.117 ± 0.003 µM

SMILES: O=C1Nc2c(C(F)(F)F)cccc2C1(c1ccc(O)cc1)N1CCC(F)(F)CC1 (racemic) [Compound 2, 3-(4,4-difluoropiperidin-1-yl)-3-(4-hydroxyphenyl)-7-(trifluoromethyl)indolin-2-one]
- IC50 (MCF-7 cells; [4]): 0.035 µM

SMILES: O=C1Nc2c(C(F)(F)F)cccc2[C@@]1(c1ccc(O)cc1)N1CCC(F)CC1 [(R)-22, (R)-3-(4-fluoropiperidin-1-yl)-3-(4-hydroxyphenyl)-7-(trifluoromethyl)indolin-2-one]
- anticancer activity against MCF-7 cells (in words) (MCF-7 cells; MCF-7 cells): lack of potent activity

SMILES: O=C1Nc2c(C(F)(F)F)cccc2[C@@]1(c1ccc(O)cc1)N1CCCC(F)(F)C1 [(R)-23, (R)-3-(3,3-difluoropiperidin-1-yl)-3-(4-hydroxyphenyl)-7-(trifluoromethyl)indolin-2-one]
- potencies against ERα− cancer cell lines (in words) (ERα− cancer cell lines): double-digit micromolar
- % Remaining after 120 min (SD) ([1]; 120 min): 0±0%
- half-life at 100 μM ([1]; simulated gastric fluid with pepsin, pH 1.2, one-phase decay, read-out: t1/2 (min) (95% CI)): 10 min

SMILES: O=C1Nc2c(C(F)(F)F)cccc2[C@]1(c1ccc(O)cc1)N1CC(F)(F)C(F)(F)C1 [(S)-26, (S)-3-(4-hydroxyphenyl)-3-(3,3,4,4-tetrafluoropyrrolidin-1-yl)-7-(trifluoromethyl) indolin-2-one]
- anticancer activity against MCF-7 cells (in words) (MCF-7 cells; MCF-7 cells): inactive

SMILES: O=C1Nc2c(C(F)(F)F)cccc2C1(c1ccc(OC(F)(F)F)cc1)c1ccc(O)c(F)c1 (centres unmarked) [Compound 5, 3-(3-fluoro-4-hydroxyphenyl)-3-(4-(trifluoromethoxy)phenyl)-7-(trifluoromethyl)indolin-2-one]
- IC50 (MCF-7 cells; [4]): 0.033 µM

SMILES: O=C1Nc2c(C(F)(F)F)cccc2C1(c1ccc(OC(F)(F)F)cc1)c1cc(F)c(O)c(F)c1 (centres unmarked) [Compound 6, 3-(3,5-difluoro-4-hydroxyphenyl)-3-(4-(trifluoromethoxy)phenyl)-7-(trifluoromethyl)indolin-2-one]
- IC50 (MCF-7 cells; [4]): > 1 µM
- anticancer activity against MCF-7 cells (in words) (MCF-7 cells; MCF-7 cells): loss of activity

SMILES: O=C1Nc2c(C(F)(F)F)cccc2C1(c1ccc(OC(F)(F)F)cc1)c1ccc(O)cc1F (centres unmarked) [Compound 7, 3-(2-fluoro-4-hydroxyphenyl)-3-(4-(trifluoromethoxy)phenyl)-7-(trifluoromethyl)indolin-2-one]
- IC50 (MCF-7 cells; [4]): 0.177 µM

SMILES: O=C1Nc2c(C(F)(F)F)cccc2C1(c1ccc(OC(F)(F)F)cc1)c1c(F)cc(O)cc1F (centres unmarked) [Compound 8, 3-(2,6-difluoro-4-hydroxyphenyl)-3-(4-(trifluoromethoxy)phenyl)-7-(trifluoromethyl)indolin-2-one]
- IC50 (MCF-7 cells; [4]): 0.549 µM

SMILES: O=C1Nc2c(C(F)(F)F)cccc2C1(c1ccc(OC(F)(F)F)cc1)c1ccc(OC(F)(F)F)cc1 [Compound 9, 3,3-bis(4-(trifluoromethoxy)phenyl)-7-(trifluoromethyl)indolin-2-one]
- IC50 (MCF-7 cells; [4]): > 1 µM
- anticancer activity against MCF-7 cells (in words) (MCF-7 cells; MCF-7 cells): lack of activity

SMILES: O=C1Nc2c(C(F)(F)F)cccc2C1(c1ccc(OC(F)(F)F)cc1)c1ccc(O)c(O)c1 (centres unmarked) [Compound 10, 3-(3,4-dihydroxyphenyl)-3-(4-(trifluoromethoxy)phenyl)-7-(trifluoromethyl)indolin-2-one]
- IC50 (MCF-7 cells; [4]): 0.049 µM

SMILES: Cc1cc(C2(c3ccc(OC(F)(F)F)cc3)C(=O)Nc3c(C(F)(F)F)cccc32)ccc1O (centres unmarked) [Compound 11, 3-(4-hydroxy-3-methylphenyl)-3-(4-(trifluoromethoxy)phenyl)-7-(trifluoromethyl)indolin-2-one]
- IC50 (MCF-7 cells; [4]): > 1 µM

SMILES: Cc1cc(C2(c3ccc(OC(F)(F)F)cc3)C(=O)Nc3c(C(F)(F)F)cccc32)cc(C)c1O (centres unmarked) [Compound 12, 3-(4-hydroxy-3,5-dimethylphenyl)-3-(4-(trifluoromethoxy)phenyl)-7-(trifluoromethyl)indolin-2-one]
- IC50 (MCF-7 cells; [4]): > 1 µM

SMILES: CC(C)c1cc(C2(c3ccc(OC(F)(F)F)cc3)C(=O)Nc3c(C(F)(F)F)cccc32)cc(C(C)C)c1O (centres unmarked) [Compound 13, 3-(4-hydroxy-3,5-diisopropylphenyl)-3-(4-(trifluoromethoxy)phenyl)-7-(trifluoromethyl)indolin-2-one]
- IC50 (MCF-7 cells; [4]): > 1 µM

SMILES: O=C1Nc2c(C(F)(F)F)cccc2C1(c1ccc(O)cc1)N1CCCCC1 (centres unmarked) [Compound 16, 3-(4-hydroxyphenyl)-3-(piperidin-1-yl)-7-(trifluoromethyl)indolin-2-one]
- IC50 (MCF-7 cells; [4]): > 1 µM

SMILES: CC1CN(C2(c3ccc(O)cc3)C(=O)Nc3c(C(F)(F)F)cccc32)CCC1(F)F (centres unmarked) [Compound 17, 3-(4,4-difluoro-3-methylpiperidin-1-yl)-3-(4-hydroxyphenyl)-7-(trifluoromethyl)indolin-2-one]
- IC50 (MCF-7 cells; [4]): 0.07 µM

SMILES: O=C1Nc2c(C(F)(F)F)cccc2C1(c1ccc(O)cc1)N1CCOCC1 (centres unmarked) [Compound 18, 3-(4-hydroxyphenyl)-3-morpholino-7-(trifluoromethyl)indolin-2-one]
- IC50 (MCF-7 cells; [4]): > 1 µM

SMILES: O=C1Nc2c(C(F)(F)F)cccc2C1(c1ccc(O)cc1)N1CCCCCC1 (centres unmarked) [Compound 19, 3-(azepan-1-yl)-3-(4-hydroxyphenyl)-7-(trifluoromethyl)indolin-2-one]
- IC50 (MCF-7 cells; [4]): > 1 µM

SMILES: O=C1Nc2c(C(F)(F)F)cccc2C1(c1ccc(O)cc1)N1CCC(O)CC1 (centres unmarked) [Compound 20, 3-(4-hydroxyphenyl)-3-(4-hydroxypiperidin-1-yl)-7-(trifluoromethyl)indolin-2-one]
- IC50 (MCF-7 cells; [4]): > 1 µM

SMILES: O=C1Nc2c(C(F)(F)F)cccc2C1(c1ccc(O)cc1)N1CCC(OC(F)(F)F)CC1 (centres unmarked) [Compound 21, 3-(4-hydroxyphenyl)-3-(4-(trifluoromethoxy)piperidin-1-yl)-7-(trifluoromethyl)indolin-2-one]
- IC50 (MCF-7 cells; [4]): 0.135 µM

SMILES: O=C1Nc2c(C(F)(F)F)cccc2C1(c1ccc(O)cc1)N1CC(F)(F)C(F)(F)C1 (centres unmarked) [drawing 36]
- IC50 (MCF-7 cells; [2]): 0.005 ± 0.001 µM
- IC50 (MCF-7 cells; [3]): 0.004 ± 0.001 µM
- Fold Change (MDA-MB-231): 3500
- IC50 (MDA-MB-231; 24 hr, read-out: IC50 24 hr): 22 ± 2 µM
- IC50 (MDA-MB-231; 72 hr, read-out: IC50 72 hr): 14 ± 1 µM
- Fold Change (HCT-116): 3750
- IC50 (HCT-116; 24 hr, read-out: IC50 24 hr): 24 ± 2 µM
- IC50 (HCT-116; 72 hr, read-out: IC50 72 hr): 15 ± 3 µM
- Fold Change (HT-29): 3750
- IC50 (HT-29; 24 hr, read-out: IC50 24 hr): 25 ± 1 µM
- IC50 (HT-29; 72 hr, read-out: IC50 72 hr): 15 ± 2 µM

SMILES: O=C1Nc2c(C(F)(F)F)cccc2C1(c1ccc(O)cc1)N1CC(F)(F)C(F)(F)C1 (centres unmarked) [drawing 37]
- IC50 (MCF-7 cells; [2]): > 1 µM
- IC50 (MCF-7 cells; [3]): > 1 µM
